Legend:
[1] = molecular target: T1, 4-galactosyl-N-acetylglucosaminide 3-alpha-L-fucosyltransferase FUT6 (Homo sapiens) (UniProt P51993); experiment: In vitro inhibition of Fucosyltransferase 6; design: concentration or dose not given beside the values; conditions: concentration not given here
T1 sequence (whole entry): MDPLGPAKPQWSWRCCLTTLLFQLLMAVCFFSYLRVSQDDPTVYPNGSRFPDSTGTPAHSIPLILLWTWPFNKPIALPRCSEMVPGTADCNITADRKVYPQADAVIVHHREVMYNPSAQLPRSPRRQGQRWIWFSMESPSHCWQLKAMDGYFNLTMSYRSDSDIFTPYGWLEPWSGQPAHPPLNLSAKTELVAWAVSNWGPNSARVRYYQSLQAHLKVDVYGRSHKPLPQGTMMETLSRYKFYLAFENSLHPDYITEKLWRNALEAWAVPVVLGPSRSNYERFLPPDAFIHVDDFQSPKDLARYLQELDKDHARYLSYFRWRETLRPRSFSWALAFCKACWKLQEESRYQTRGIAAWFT

[2] = molecular target: T2, 3-galactosyl-N-acetylglucosaminide 4-alpha-L-fucosyltransferase FUT3 (Homo sapiens) (UniProt P21217); experiment: In vitro inhibition of Fucosyltransferase 3; design: concentration or dose not given beside the values; conditions: concentration not given here
T2 sequence (whole entry): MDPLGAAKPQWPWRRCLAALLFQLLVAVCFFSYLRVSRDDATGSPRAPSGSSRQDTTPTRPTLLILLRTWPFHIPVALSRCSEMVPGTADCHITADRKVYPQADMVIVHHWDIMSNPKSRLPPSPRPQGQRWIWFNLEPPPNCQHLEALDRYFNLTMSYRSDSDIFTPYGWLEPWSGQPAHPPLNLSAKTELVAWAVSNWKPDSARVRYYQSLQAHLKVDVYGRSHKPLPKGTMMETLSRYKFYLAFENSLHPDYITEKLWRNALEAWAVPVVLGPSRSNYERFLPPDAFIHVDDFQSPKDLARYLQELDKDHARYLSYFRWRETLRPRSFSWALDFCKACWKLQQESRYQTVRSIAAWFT

## C[C@@H]1O[C@H](OP(=O)(O)OP(=O)(O)OC[C@H]2O[C@@H](n3cnc4c(O)nc(N)nc43)[C@H](O)[C@@H]2O)[C@H](O)[C@@H](O)[C@@H]1O
[1]
  inhibition: 83%
[2]
  inhibition: 96%

## C[C@@H]1O[C@H](OP(=O)(O)OP(=O)(O)OC[C@H]2O[C@@H](n3cnc4c(O)ncnc43)[C@H](O)[C@@H]2O)[C@@H](O)[C@@H](O)[C@H]1O
[1]
  inhibition: 72%
[2]
  inhibition: 68%

## C[C@@H]1O[C@H](OP(=O)(O)OP(=O)(O)OP(=O)(O)OC[C@H]2O[C@@H](n3cnc4c(O)nc(N)nc43)[C@H](O)[C@@H]2O)[C@H](O)[C@@H](O)[C@@H]1O
[1]
  inhibition: 0%
[2]
  inhibition: 0%

## C[C@@H]1O[C@H](OP(=O)(O)OP(=O)(O)OC[C@H]2O[C@@H](n3cnc4c(=O)[nH]c(=O)[nH]c43)[C@H](O)[C@@H]2O)[C@@H](O)[C@@H](O)[C@H]1O
[1]
  inhibition: 62%
[2]
  inhibition: 73%

## C[C@@H]1O[C@H](OP(=O)(O)OP(=O)(O)OC[C@H]2O[C@@H](n3cnc4c(N)ncnc43)[C@H](O)[C@@H]2O)[C@@H](O)[C@@H](O)[C@H]1O
[1]
  inhibition: 60%
[2]
  inhibition: 76%
